From US11890288B2, “Sulfonamide or sulfinamide compound having effect of inducing BRD4 protein degradation and pharmaceutical use thereof” (MITSUBISHI TANABE PHARMA CORPORATION, priority 2020, dated 2024)

Experiments:
[1] = molecular target: BRD4 protein (Homo sapiens (Human), UniProt O60885); test: BRD4 protein degradation inducing action in LNCaP cells (immunofluorescence, 6 hr); type: cell-based; settings: anti-BRD4 fluorescence intensity
Protocol: The degradation inducing action of the compound of the present invention on BRD4 proteins in cancer cells was evaluated in vitro using human prostate cancer LNCaP cells. LNCaP cells were suspended in 10% FBS/RPMI1640, seeded in a 96 well Cell carrier plate (Perkin Elmer) and cultured at 5% CO2, 37° C. overnight. A test compound dissolved in DMSO was diluted with 10% FBS/RPMI1640 and added and the cells were further cultured for 6 hr. After culturing, the cells were immobilized with 4% para-formaldehyde/PBS and further subjected to a permeation treatment with 0.25% Triton X-100/PBS. Thereafter, the cells were blocked with 10% BSA/PBS, Anti-BRD4 (Sigma-Aldrich) solution was added and the cells were incubated at 4° C. overnight. Furthermore, Goat anti-Rabbit IgG(H+L) Cross-Adsorbed Secondary Antibody, Alexa Fluor 546 (Thermo Fisher Scientific) solution, 0.5 μg/mL Hoechst 33342 (Sigma-Aldrich), and 14 μM Acti-Stain 555 Fluorescent Phalloidin (Cytoskeleton) were added. After incubation for 1 hr, BRD4 protein amount was measured by Operetta (Perkin Elmer) as fluorescence intensity (excitation: 560 nm, emission: 572 nm). The BRD4 protein degradation inducing activity of the compound of the present invention in LNCaP cells is shown in DC50 value in Table 3. The DC50 value is a concentration of the compound showing 50% fluorescence intensity when the fluorescence intensity thereof under compound untreated condition is 100%. It was calculated from the straight line connecting the fluorescence intensity at two points enclosing the 50% fluorescence intensity and the compound concentration.

[2] = test system: human prostate cancer LNCaP cells; test: Cytotoxic action on LNCaP cells (WST-8, 96 hr); type: cell-based; settings: 96 hr culture
Protocol: The cytotoxic action of the compound of the present invention against human cancer cells was evaluated in vitro. In this experiment, (+)-JQ1 (Nature volume 468, pages 1067-1073 (23 Dec. 2010)) known to have an inhibitory activity on the binding of BRD4 protein and a ligand therefor was used as a positive control drug. Respective cells were suspended in 10% FBS/RPMI1640, seeded in a 96 well plate and cultured at 5% CO2, 37° C. overnight. A test compound dissolved in DMSO was diluted with 10% FBS/RPMI1640 and added and the cells were further cultured for 96 hr. After culturing, the viable cell number was measured using a cell number measurement WST-8 kit (Kishida Chemical Co., Ltd.). As a control, the measurement was performed under conditions free of the test compound. The cytotoxic activity of the compound of the present invention against human prostate cancer LNCaP cells is shown in IC50 value in Table 1. The IC50 value is a concentration of the compound showing 50% cell survival rate when the cell survival rate thereof under compound untreated condition is 100%. It was calculated from the straight line connecting the cell survival rate at two points enclosing the 50% cell survival rate and the compound concentration. In addition, the cytotoxic activity against respective cancer cells of human acute myeloid leukemia MV-4-11 cell, human chronic myeloid leukemia K562 cell, human multiple myeloma MM.1S cell, human diffuse large B-cell lymphoma SU-DHL-6 cell, human T-cell leukemia Jurkat cells, human Burkitt lymphoma Raji cell, human castration-resistant prostate cancer PC-3 cell, human AR-V7 positive castration-resistant prostate cancer 22Rv1 cell, human ovarian cancer A2780 cell, human cisplatin-resistant ovarian cancer SK-OV-03 cell, human bladder cancer 5637 cell, human breast cancer ZR-75-1 cell, human triple negative breast cancer MDA-MB-231 cell, human uterus cervix cancer HeLa cell, human uterine sarcoma MES-SA cell, human stomach cancer SNU-16 cell, human non-small cell lung cancer NCI-H2126 cell, human EGFRT790M mutation-positive non-small cell lung cancer NCI-H1975 cell, human small cell lung cancer NCI-H82 cell, human large cell lung cancer NCI-H460 cell, human colon cancer HCT116 cell, human glioma U-87 MG cell, human pancreatic cancer BxPC-3 cell, human liver cancer HLF cell, human bile duct cancer HuCCT1 cell, human renal cell cancer 786-O cell, and human fibrosarcoma HT1080 cell is shown in IC50 value in Table 2.

SMILES | DC50 [1] | IC50 [2]
Cc1sc2c(c1C)C(c1ccc(-c3ccc(C(=O)NCc4ccc(S(=O)(=O)Nc5ccc(C)c6c(C#N)c[nH]c56)cc4)cc3)cc1)=N[C@@H](CC(=O)N(C)C)c1nnc(C)n1-2 [Example 38, N-({4-[(3-cyano-4-methyl-1H-indol-7-yl)sulfamoyl]phenyl}methyl)-4′-{(6S)-6-[2-(dimethylamino)-2-oxoethyl]-2,3,9-trimethyl-6H-thieno[3,2-f][1,2,4]triazolo[4,3-a][1,4]diazepin-4-yl}[1,1′-biphenyl]-4-carboxamide] | 5.6 nM | 5.8 nM
COC(=O)C[C@@H]1N=C(c2ccc(-c3ccc4oc(C(=O)NCc5ccc(S(=O)(=O)Nc6ccc(C)c7c(C#N)c[nH]c67)cc5)cc4c3)cc2)c2c(sc(C)c2C)-n2c(C)nnc21 [Example 35, methyl [(6S)-4-(4-{2-[({4-[(3-cyano-4-methyl-1H-indol-7-yl)sulfamoyl]phenyl}methyl)carbamoyl]-1-benzofuran-5-yl}phenyl)-2,3,9-trimethyl-6H-thieno[3,2-f][1,2,4]triazolo[4,3-a][1,4]diazepin-6-yl]acetate] | 2.7 nM | 7.2 nM
COC(=O)C[C@@H]1N=C(c2ccc(-c3ccc(C(=O)NCC#Cc4ccc(S(=O)(=O)Nc5ccc(C)c6c(C#N)c[nH]c56)cc4)cc3)cc2)c2c(sc(C)c2C)-n2c(C)nnc21 [Example 31, methyl [(6S)-4-{4′-[(3-{4-[(3-cyano-4-methyl-1H-indol-7-yl)sulfamoyl]phenyl}prop-2-yn-1-yl)carbamoyl][1,1′-biphenyl]-4-yl}-2,3,9-trimethyl-6H-thieno[3,2-f][1,2,4]triazolo[4,3-a][1,4]diazepin-6-yl]acetate] | 5.9 nM | 4.2 nM
COC(=O)C[C@@H]1N=C(c2ccc(-c3ccc(C(=O)NCc4ccc(S(=O)(=O)Nc5ccc(C)c6c(C#N)c[nH]c56)cc4)c(OC)c3)cc2)c2c(sc(C)c2C)-n2c(C)nnc21 [Example 52, methyl [(6S)-4-{4′-[({4-[(3-cyano-4-methyl-1H-indol-7-yl)sulfamoyl]phenyl}methyl)carbamoyl]-3′-methoxy[1,1′-biphenyl]-4-yl}-2,3,9-trimethyl-6H-thieno[3,2-f][1,2,4]triazolo[4,3-a][1,4]diazepin-6-yl]acetate] | 0.3 nM | 0.55 nM
COC(=O)C[C@@H]1N=C(c2ccc(-c3ccc(C(=O)NCc4ccc(S(=O)(=O)Nc5ccc(C)c6c(C#N)c[nH]c56)cc4)cc3)cc2)c2cc(OC)ccc2-n2c(C)nnc21 [Example Compound 133, methyl [(4S)-6-{4′-[({4-[(3-cyano-4-methyl-1H-indol-7-yl)sulfamoyl]phenyl}methyl)carbamoyl][1,1′-biphenyl]-4-yl}-8-methoxy-1-methyl-4H-[1,2,4]triazolo[4,3-a][1,4]benzodiazepin-4-yl]acetate] | 0.34 nM | 0.49 nM
CCc1ccc(NS(=O)(=O)c2ccc(CNC(=O)c3ccc(-c4ccc(C5=N[C@@H](CC(=O)OC)c6nnc(C)n6-c6sc(C)c(C)c65)cc4)c(F)c3)cc2)c2[nH]cc(C#N)c12 [Example Compound 115, methyl [(6S)-4-{4′-[({4-[(3-cyano-4-ethyl-1H-indol-7-yl)sulfamoyl]phenyl}methyl)carbamoyl]-2′-fluoro[1,1′-biphenyl]-4-yl}-2,3,9-trimethyl-6H-thieno[3,2-f][1,2,4]triazolo[4,3-a][1,4]diazepin-6-yl]acetate] | 0.13 nM | 0.32 nM
CCc1ccc(NS(=O)(=O)c2ccc(CNC(=O)c3ccc(-c4ccc(C5=N[C@@H](CC(=O)OC(C)(C)C)c6nnc(C)n6-c6sc(C)c(C)c65)cc4)cc3)cc2)c2[nH]cc(C#N)c12 [Example Compound 135, t-butyl [(6S)-4-{4′-[({4-[(3-cyano-4-ethyl-1H-indol-7-yl)sulfamoyl]phenyl}methyl)carbamoyl][1,1′-biphenyl]-4-yl}-2,3,9-trimethyl-6H-thieno[3,2-f][1,2,4]triazolo[4,3-a][1,4]diazepin-6-yl]acetate] | 0.38 nM | 0.66 nM
COC(=O)C[C@@H]1N=C(c2ccc(-c3ccc(C(=O)NCCc4ccc(S(=O)(=O)Nc5ccc(C)c6c(C#N)c[nH]c56)cc4)nc3)cc2)c2c(sc(C)c2C)-n2c(C)nnc21 [Example 90, methyl [(6S)-4-(4-{6-[(2-{4-[(3-cyano-4-methyl-1H-indol-7-yl)sulfamoyl]phenyl}ethyl)carbamoyl]pyridin-3-yl}phenyl)-2,3,9-trimethyl-6H-thieno[3,2-f][1,2,4]triazolo[4,3-a][1,4]diazepin-6-yl]acetate] | 0.091 nM | 0.19 nM
CCc1ccc(NS(=O)(=O)c2ccc(CNC(=O)c3ccc(-c4ccc(C5=N[C@@H](CC(=O)OC)c6nnc(C)n6-c6sc(C)c(C)c65)cc4)c(F)c3F)cc2)c2[nH]cc(C#N)c12 [Example Compound 118, methyl [(6S)-4-{4′-[({4-[(3-cyano-4-ethyl-1H-indol-7-yl)sulfamoyl]phenyl}methyl)carbamoyl]-2′,3′-difluoro[1,1′-biphenyl]-4-yl}-2,3,9-trimethyl-6H-thieno[3,2-f][1,2,4]triazolo[4,3-a][1,4]diazepin-6-yl]acetate] | 0.14 nM | 0.32 nM
COc1ccc2c(c1)C(c1ccc(-c3ccc(C(=O)NCc4ccc(S(=O)(=O)Nc5ccc(C)c6c(C#N)c[nH]c56)cc4)cc3)cc1)=N[C@@H](CC(=O)OC(C)(C)C)c1nnc(C)n1-2 [Example Compound 132, t-butyl [(4S)-6-{4′-[({4-[(3-cyano-4-methyl-1H-indol-7-yl)sulfamoyl]phenyl}methyl)carbamoyl][1,1′-biphenyl]-4-yl}-8-methoxy-1-methyl-4H-[1,2,4]triazolo[4,3-a][1,4]benzodiazepin-4-yl]acetate] | 0.13 nM | 0.21 nM
COC(=O)C[C@@H]1N=C(c2ccc(-c3ccc(C(=O)NCc4ccc(S(=O)(=O)Nc5ccc(C)c6c(C#N)c[nH]c56)c(F)c4)cc3)cc2)c2c(sc(C)c2C)-n2c(C)nnc21 [Example 25, methyl [(6S)-4-{4′-[({4-[(3-cyano-4-methyl-1H-indol-7-yl)sulfamoyl]-3-fluorophenyl}methyl)carbamoyl][1,1′-biphenyl]-4-yl}-2,3,9-trimethyl-6H-thieno[3,2-f][1,2,4]triazolo[4,3-a][1,4]diazepin-6-yl]acetate] | 0.16 nM | 0.24 nM
Cc1sc2c(c1C)C(c1ccc(-c3ccc(C(=O)NCc4ccc(S(=O)(=O)Nc5ccc(C)c6c(C#N)c[nH]c56)cc4)cc3)cc1)=N[C@@H](CC(=O)OC(C)(C)C)c1nnc(C)n1-2 [Example 63, t-butyl [(6S)-4-{4′-[({4-[(3-cyano-4-methyl-1H-indol-7-yl)sulfamoyl]phenyl}methyl)carbamoyl][1,1′-biphenyl]-4-yl}-2,3,9-trimethyl-6H-thieno[3,2-f][1,2,4]triazolo[4,3-a][1,4]diazepin-6-yl]acetate] | 0.23 nM | 0.45 nM
CCc1ccc(NS(=O)(=O)c2ccc(CNC(=O)c3cc(F)c(-c4ccc(C5=N[C@@H](CC(=O)OC)c6nnc(C)n6-c6sc(C)c(C)c65)cc4)cc3F)cc2)c2[nH]cc(C#N)c12 [Example Compound 119, methyl [(6S)-4-{4′-[({4-[(3-cyano-4-ethyl-1H-indol-7-yl)sulfamoyl]phenyl}methyl)carbamoyl]-2′,5′-difluoro[1,1′-biphenyl]-4-yl}-2,3,9-trimethyl-6H-thieno[3,2-f][1,2,4]triazolo[4,3-a][1,4]diazepin-6-yl]acetate] | 0.27 nM | 0.45 nM
